Reference: EP4653523A1, “CULTURE MEDIUM, PRODUCTION METHOD, AND CELL PREPARATION” (National University Corporation Kumamoto University, priority 2023, dated 2024)

Tests used:
[1] = tested on: EPCR High cell group; assay: Ex vivo culture of mouse EPCR High cell group for 4 days, flow cytometry and cell count; type: cell-based; details: cultured for 4 days, vs control
From the text: The expression of c-kit and EPCR in a hematopoietic stem cell fraction (lineage: CD150+, CD48-) isolated from a mouse by using flow cytometry was checked. Among the c-kit-positive and EPCR-positive cells, a cell group of the top 30% of the EPCR-positive cells was defined as an EPCR High cell group, and a cell group of the bottom 30% of the EPCR-positive cells was defined as an EPCR Low cell group (see FIG. 1). Each cell group was transplanted into a recipient mouse, and 20 weeks later, the proportion of cells derived from the transplanted stem cells was examined in the peripheral blood (PB). In addition, at the same time, the proportion of cells derived from the transplanted stem cells was examined in the hematopoietic stem cell fraction ([…]) in the bone marrow after 20 weeks of the transplantation. The experiment was carried out twice. […] The culture medium used for the ex vivo culture of the untreated hematopoietic stem cells isolated from the mouse is a culture medium obtained by adding, to the RPMI medium, L-Alanin (4.45mg/L), Zinc Sulfate Heptahydrate (0.432mg/L), Cupric Sulfate Pentahydrate (0.0013mg/L), Ferric Nitrate Nonahydrate (0.05mg/L), Ferrous Sulfate Heptahydrate (0.417mg/L), Linoleic acid (0.042mg/L), Hypoxanthine (2.1mg/L), Putrescine + 2HCL (0.081mg/L), Thioctic Acid (0.105mg/L), Thymidine (0.365mg/L), Sodium Pyruvate (55mg/L), HEPES (1mM), a penicillin-streptomycin mixed solution (Nacalai Tesque, Inc.: 26253-84) (1/100 capacity), Insulin-Transferrin-Selenium-Ethanolamine (Thermo Fisher Scientific, Inc.: 51500056) (1/100 capacity), and AlbuMAXtm I Lipid-Rich BSA (Thermo Fisher Scientific, Inc.: 11020021) (2%). As shown in FIG. 5(A), α-ketoglutaric acid (αKG), which is an intermediate metabolite of the TCA cycle, is also produced from glutamic acid or the like, and then it is supplied to the TCA cycle. In addition, in the production of α-ketoglutaric acid from glutamic acid, two pathways of a transaminase pathway and a glutamate dehydrogenase pathway are used (see FIG. 5(B)). Therefore, the proportion of EPCR High in hematopoietic stem cells was determined in a case where the EPCR High cell group was cultured for 4 days by adding each of an inhibitor […] (30 μM) of glutamate dehydrogenase and an inhibitor aminooxyacetic acid (AOA) (50 μM) of transaminase to the culture medium, and in a case where the content of […] in the culture medium, which is the source of glutamic acid synthesis, was set to 1/100 (0.02 mM) in FIG. 5(A) (Low Neu.). […] As a result, in a case of culturing in the presence of […], the number of cells having the EPCR High phenotype is increased by about 2 times in the culture for 4 days, as compared with the culture under the normal culture conditions. […]

[2] = tested on: Human CD34^+ bone marrow cells; assay: Culture of human CD34+ bone marrow cells for 7 days, total cell count and flow cytometry; type: cell-based
Procedure: Human CD34^+ bone marrow cells (10,000 cells) were cultured for 7 days under normal culture conditions or in the presence of a glutamate dehydrogenase inhibitor R162 (30 µM), and then the total number of cells was analyzed. Then, the proportion of hematopoietic stem cells (lineage: CD34+ CD38- CD90+ cells) was analyzed using a flow cytometer, and from the results, the number of stem cells was estimated. FIG. 13 and FIG. 14 show the results. As shown in FIG. 14(A), it has been confirmed that the total number of cells is not changed by the presence of R162 as compared with the control, whereas as shown in FIG. 14(B), the ratio of stem cells after culturing is increased by the presence of R162.
The culture medium used for the ex vivo culture of human CD34+ bone marrow cells is a culture medium obtained by adding, to the RPMI medium, L-Alanin (4.45mg/L), Zinc Sulfate Heptahydrate (0.432mg/L), Cupric Sulfate Pentahydrate (0.0013mg/L), Ferric Nitrate Nonahydrate (0.05mg/L), Ferrous Sulfate Heptahydrate (0.417mg/L), Linoleic acid (0.042mg/L), Hypoxanthine (2.1mg/L), Putrescine + 2HCL (0.081mg/L), Thioctic Acid (0.105mg/L), Thymidine (0.365mg/L), Sodium Pyruvate (55mg/L), HEPES (1mM), a penicillin-streptomycin mixed solution (Nacalai Tesque, Inc.: 26253-84) (1/100 capacity), Insulin-Transferrin-Selenium-Ethanolamine (Thermo Fisher Scientific, Inc.: 51500056) (1/100 capacity), and AlbuMAXtm I Lipid-Rich BSA (Thermo Fisher Scientific, Inc.: 11020021) (2%).

[3] = tested on: EPCR High cell group; assay: Gene expression pattern analysis by RNA-sequence with principal component analysis; type: cell-based, mouse; details: 4d gEPCR-High (R162) compared with 4d gEPCR-High, cultured for 4 days
[4] = tested on: EPCR High cell group; assay: Chromatin status by open chromatin region analysis (ATAC-sequence) with principal component analysis; type: cell-based, mouse; details: 4d gEPCR-High (R162) compared with 4d gEPCR-High, cultured for 4 days
Procedure: In the same manner, the chromatin status of each cell group was analyzed by open chromatin region analysis (ATAC-sequence).

[5] = tested on: recipient mouse; assay: Transplantation of cultured cell groups into recipient mouse, proportion of donor-derived cells; type: in vivo
Procedure: Mouse EPCR High cells were cultured for 4 days under the normal culture conditions or in the presence of R162, and 50 cells of each of an EPCR High cell group (Control) generated under the normal culture conditions, an EPCR Low cell group (Control), and an EPCR High cell group (R162) amplified in the presence of R162 were aliquoted and then transplanted into a recipient mouse. Then, after 4 weeks and 12 weeks, the proportion of cells derived from donor cells in the peripheral blood was examined.
Further, the EPCR High cells were cultured for 4 days under the normal culture conditions and cultured for 4 days in the presence of R162, and the EPCR High cell group generated under the normal culture conditions, the EPCR Low cell group, and the EPCR High cell group (R162) amplified in the presence of R162 were each transplanted into a recipient mouse. Then, 20 weeks later, the proportion of cells derived from donor cells was examined in the peripheral blood and the hematopoietic stem cell fraction in the bone marrow (L-ESLAM (BM)).

O=C(O[C@@H]1Cc2c(O)cc(O)cc2O[C@@H]1c1cc(O)c(O)c(O)c1)c1cc(O)c(O)c(O)c1 [EGCG, epigallo catechin-3-gallate]
proportion of EPCR-positive cells (phenotype of EPCR High) ([1]; EGCG 50 µM in culture medium): phenotype of EPCR High is maintained

NOCC(=O)O [AOA, aminooxyacetic acid]
number of cells ([1]; AOA 50 µM): significantly reduced as compared with the control

C=CCc1ccc2c(c1O)C(=O)c1ccccc1C2=O [R162, 2-allyl-1-hydroxy-9,10-anthraquinone]
total number of cells ([2]; R162 30 µM, 10,000 cells cultured for 7 days, vs control): not changed
number of stem cells ([2]; R162 30 µM, cultured for 7 days, estimated from total cell number and proportion, vs normal culture conditions): the number of stem cells is increased
ratio of stem cells after culturing (CD34+ CD38- CD90+ cells) ([2]; R162 30 µM, cultured for 7 days, vs control): increased
gene expression pattern [3]: extremely similar gene expression patterns
chromatin status (chromatin accessibility of cis-element regions) [4]: extremely similar gene expression patterns even in the chromatin status
proportion of EPCR High in hematopoietic stem cells ([1]; R162 30 µM in culture medium): phenotype of EPCR High is maintained
number of cells ([1]; R162 30 µM): about the same level as that of the control
proportion of cells derived from donor cells in the peripheral blood ([5]; 50 cells of EPCR High cell group amplified 4 days in the presence of R162, transplanted, after 4 weeks and 12 weeks): high ability to reconstruct hematopoietic tissue, which is equivalent to the EPCR High cell group (Control)
proportion of cells derived from donor cells in the peripheral blood and the hematopoietic stem cell fraction in the bone marrow (L-ESLAM (BM)) ([5]; EPCR High cell group amplified 4 days in the presence of R162, transplanted, 20 weeks later): high ability to maintain the reconstructed hematopoiesis for a longer period of time
